# Data as given in PubChem BioAssay (NCI).
# Several values for one entry are separate records, joined by “and”; a condition that tells them apart may be missing. Identical values can stand only once.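 In this assay, cells in 96-well plates receive the compound at five concentrations for 48 hours. Endpoints are linearly interpolated between the surrounding concentrations. Abbreviation: GI50, concentration required for 50% inhibition of growth. TGI denotes the concentration required for complete inhibition of growth.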
# Assays:
# Experiment in all cases: growth of human tumour cells (NCI), 48 h
# [1] = tested on: NCI-H23 lung
# [2] = tested on: SK-OV-3 ovarian
# [3] = tested on: OVCAR-4 ovarian
# [4] = tested on: SK-MEL-5 melanoma
# [5] = tested on: NCI-H522 lung
# [6] = tested on: SF-295 CNS
# [7] = tested on: IGROV1 ovarian
# [8] = tested on: HOP-92 NSCLC
# [9] = tested on: SR leukemia
# [10] = tested on: MDA-MB-231 breast
Structure (SMILES),GI50 [1],TGI [1],GI50 [2],TGI [2],GI50 [3],TGI [3],GI50 [4],TGI [4],GI50 [5],TGI [5],GI50 [6],TGI [6],GI50 [7],TGI [7],TGI [8],TGI [9],GI50 [8],GI50 [10],TGI [10],GI50 [9]
CC(=O)[O-].O=[N+]([O-])c1ccc([O-])c(C=NCCN=Cc2cc([N+](=O)[O-])ccc2[O-])c1.[Mn+3],> 100 µM,> 100 µM,> 100 µM,> 100 µM,> 100 µM,> 100 µM,> 100 µM,> 100 µM,31.4 µM,93.3 µM,> 100 µM,> 100 µM,2.73 µM,19.9 µM,,,,,,
C=C1c2ccccc2N(S(=O)(=O)c2ccc(C)cc2)C12CCCCC2,,> 100 µM,,> 100 µM,,> 100 µM,,> 100 µM,,> 100 µM,,> 100 µM,,> 100 µM,58.5 µM,> 100 µM,,,,
Cc1cc([C@H](C)Nc2nccc(N3C(=O)OC[C@@H]3[C@H](C)F)n2)ncc1-c1ccnc(C(F)(F)F)c1,17 µM,> 100 µM,,,31.2 µM,> 100 µM,12.1 µM,33 µM,31.7 µM,> 100 µM,20.1 µM,> 100 µM,25.9 µM,> 100 µM,> 100 µM,,14.9 µM,34.5 µM,> 100 µM,
NCCNc1nc2ccccc2c2c(=O)c3cc(F)cc(Cl)c3sc12,1.75 µM,3.42 µM,,,1.7 µM,3.41 µM,2.52 µM,6.66 µM,1.64 µM,3.43 µM,1.73 µM,3.18 µM,1.51 µM,3.01 µM,3.06 µM,,1.39 µM,1.48 µM,2.93 µM,
CC(C)(C)OC(=O)n1c(Cl)c(C(=O)N=C=S)c2ccccc21,28.4 µM,> 100 µM,> 100 µM,> 100 µM,> 100 µM,> 100 µM,18.8 µM,40.1 µM,18.1 µM,37.6 µM,33 µM,> 100 µM,9.65 µM,34.7 µM,65.4 µM,,17.2 µM,15.7 µM,46 µM,
Cc1ccc2c(C(C[N+](=O)[O-])c3ccco3)c(-c3ccccc3)[nH]c2c1 (stereo not drawn),64.5 µM,> 100 µM,37.2 µM,> 100 µM,69 µM,> 100 µM,29.7 µM,> 100 µM,3.92 µM,> 100 µM,21.9 µM,> 100 µM,24.6 µM,> 100 µM,> 100 µM,,> 100 µM,27.1 µM,> 100 µM,
O=C1[C@H]2ON(c3ccccc3)C(c3cccc([N+](=O)[O-])c3)[C@H]2C(=O)N1c1ccc(Cc2ccc(N3C(=O)[C@@H]4ON(c5ccccc5)C(c5cccc([N+](=O)[O-])c5)[C@@H]4C3=O)cc2)cc1 (stereo partly drawn),,> 100 µM,,> 100 µM,,> 100 µM,,> 100 µM,,> 100 µM,,> 100 µM,,> 100 µM,,> 100 µM,,,,
O=c1ncccn1C1OC(CO)C(O)C1F (stereo not drawn),,> 100 µM,,> 100 µM,,> 100 µM,,> 100 µM,,> 100 µM,,> 100 µM,,> 100 µM,> 100 µM,> 100 µM,,,,
CC12O[Te]34OC1(C)C(C)(O3)C2(C)O4,,34.8 µM,,36.3 µM,,27.4 µM,,,,23.6 µM,,18.3 µM,,24.9 µM,,34 µM,,,,
O=C1OC(c2ccc(Cl)c3ccccc23)c2ccccc21 (stereo not drawn),,> 100 µM,,> 100 µM,,> 100 µM,,> 100 µM,,> 100 µM,,> 100 µM,,> 100 µM,> 100 µM,> 100 µM,,,,
C=CCN(N=O)C(=O)ON1C(=O)CCC1=O,,> 100 µM,,> 100 µM,,> 100 µM,,,,> 100 µM,,> 100 µM,,> 100 µM,> 100 µM,,,,,
CC1(C)Oc2ccccc2N2O[C@@H]3C(=O)N(c4ccccc4)C(=O)[C@@H]3C21c1ccccc1 (stereo partly drawn),,> 100 µM,,41 µM,,34.1 µM,,44.3 µM,,93.2 µM,,32.2 µM,,> 100 µM,,,,,,
CCC1(Cl)C(=O)NC(=O)N(C2CC(O)C(CO)O2)C1N=[N+]=[N-] (stereo not drawn),,> 100 µM,,> 100 µM,,> 100 µM,,> 100 µM,,> 100 µM,,> 100 µM,,> 100 µM,> 100 µM,,,,,
Fc1ccc(-c2cc(-c3cn[nH]c3-c3ccccn3)ccn2)cc1,> 12.8 µM,> 25 µM,> 25 µM,> 25 µM,> 25 µM,> 25 µM,> 25 µM,> 25 µM,> 25 µM,> 25 µM,> 25 µM,> 25 µM,> 25 µM,> 25 µM,> 25 µM,,24.6 µM,> 25 µM,> 25 µM,
CC[C@H](C)[C@H](NC(=O)N[C@@H](C)c1ccccc1)C(=O)N(C)[C@H](C[C@@H](OC(C)=O)c1nc(C(=O)N[C@@H](Cc2ccccc2)C[C@H](C)C(=O)OC)cs1)C(C)C,28.2 µM,> 100 µM,42.2 µM,> 100 µM,38.5 µM,> 100 µM,13.1 µM,40.2 µM,13 µM,42.1 µM,25.6 µM,> 100 µM,20.9 µM,> 100 µM,90.5 µM,,11.1 µM,20.7 µM,63.8 µM,
C#CCn1cc(C=C2C(=O)NC(=S)NC2=O)c2cc(Cl)ccc21,2.18 µM,5.26 µM,2.87 µM,14.7 µM,2.28 µM,7.01 µM,1.81 µM,3.31 µM,2.12 µM,5.45 µM,1.93 µM,4.12 µM,2.13 µM,5.1 µM,5.26 µM,,1.92 µM,1.81 µM,3.62 µM,
Nc1nc(Cl)cc(NCCCCCCNc2cc(Cl)nc(N)n2)n1,,> 100 µM,,> 100 µM,,> 100 µM,,> 100 µM,,> 100 µM,,> 100 µM,,> 100 µM,> 100 µM,> 100 µM,,,,
CN1CCN(CCCOc2ccc3ncnc(Nc4ccc(Oc5cccc(F)c5)c(Cl)c4)c3c2)CC1,1.48 µM,3.02 µM,,,1.62 µM,3.6 µM,1.62 µM,3.01 µM,1.23 µM,3.14 µM,1.8 µM,3.25 µM,0.711 µM,2.23 µM,2.26 µM,,0.907 µM,1.7 µM,3.16 µM,
CCOc1ccccc1NC(=O)CCC(=O)NN,,> 100 µM,,> 100 µM,,> 100 µM,,> 100 µM,,> 100 µM,,> 100 µM,,> 100 µM,> 100 µM,70.1 µM,,,,

Structure (SMILES),GI50 [1],TGI [1],GI50 [2],TGI [2],GI50 [3],TGI [3],GI50 [4],TGI [4],GI50 [5],TGI [5],GI50 [6],TGI [6],GI50 [7],TGI [7],TGI [8],TGI [9],GI50 [8],GI50 [10],TGI [10],GI50 [9]
O=c1/c(=C/c2ccc3c(c2)OCO3)sc2nnc(Cc3ccccc3)n12,,> 100 µM,,> 100 µM,,> 100 µM,,> 100 µM,,> 100 µM,,> 100 µM,,> 100 µM,> 100 µM,,,,,
COc1cc(-c2nn3c(=O)n(-c4ccc(Cl)cc4)c(=O)nc3s2)cc(OC)c1OC,> 50 µM,> 100 µM,33.5 µM,> 100 µM,16.1 µM,50 µM and 99.8 µM,,> 100 µM,> 50 µM,> 100 µM,18.2 µM,> 50 µM and 90.2 µM,> 50 µM,> 100 µM,50 µM and 59.7 µM,,44.4 µM,,,
BrC(Br)([P+](c1ccccc1)(c1ccccc1)c1ccccc1)[P+](c1ccccc1)(c1ccccc1)c1ccccc1,,34 µM,,> 100 µM,,43.3 µM,,32.2 µM,,28.7 µM,,> 100 µM,,43.2 µM,31.2 µM,56 µM,,,,
Cc1ccc(-c2cc(C(Cl)Cl)on2)cc1,55.3 µM,> 100 µM,> 100 µM,> 100 µM,77.6 µM,> 100 µM,25.3 µM,> 100 µM,48.5 µM,> 100 µM,60 µM,> 100 µM,> 100 µM,> 100 µM,> 100 µM,,33.5 µM,> 100 µM,> 100 µM,
CC(C)(C)c1cc(C(=O)O)c(C(c2ccccc2)c2ccccc2C(=O)O)c(C(=O)O)c1 (stereo not drawn),,> 100 µM,,36.9 µM,,37.7 µM,,,,5.16 µM,,> 100 µM,,,,> 100 µM,,,,
O=C(O)C(Cc1c[nH]c2ccccc12)N1C(=O)c2ccccc2C1=O (stereo not drawn),,> 100 µM,,> 100 µM,,> 100 µM,,> 100 µM,,> 100 µM,,> 100 µM,,> 100 µM,> 100 µM,,,,> 100 µM,
O=C(NOC(=O)c1ccc([N+](=O)[O-])cc1)c1ccc(Cl)cc1,,> 100 µM,,> 100 µM,,> 100 µM,,> 100 µM,,82.2 µM,,> 100 µM,,59.4 µM,> 100 µM,> 100 µM,,,,
CN1C=C(C(N)=O)C2CC(O)[C@@](NC(=O)CS(N)(=O)=O)(C(=O)O)C2C1 (stereo partly drawn),,3.48 µM,,6.75 µM,,4.15 µM,,15.7 µM,,23.9 µM,,6.97 µM,,7.83 µM,5.05 µM,15.7 µM,,,,
COC(=O)Cc1cc(=O)oc2c1C(=O)CCC2,,> 100 µM,,> 100 µM,,> 100 µM,,> 100 µM,,> 100 µM,,> 100 µM,,> 100 µM,> 100 µM,,,,,
O=c1c2ccccc2c(=O)c2c1sc1c(=O)c3ccc(O)cc3c(=O)c12,0.181 µM,0.505 µM,1.38 µM,2.91 µM,0.88 µM,2.1 µM,0.127 µM,0.256 µM,,,0.178 µM,0.361 µM,2.1 µM,6.84 µM,,> 100 µM,,1.72 µM,8.19 µM,1.08 µM
CN1C(=O)CC2(C)c3cc(C=O)ccc3N(C)C12 (stereo not drawn),,> 100 µM,,> 100 µM,,> 100 µM,,> 100 µM,,> 100 µM,,> 100 µM,,> 100 µM,> 100 µM,,,,,
COC(=O)C1=C(C(=O)OC)N(C(C)C)[C@H]2C(C(=O)OC)=C(C(=O)OC)N(C(C)C)[C@@H]12,,> 100 µM,,> 100 µM,,> 100 µM,,> 100 µM,,> 100 µM,,> 100 µM,,> 100 µM,> 100 µM,> 100 µM,,,,
O=C1Cc2ccccc2CCc2ccccc21,,> 100 µM,,> 100 µM,,> 100 µM,,> 100 µM,,> 100 µM,,> 100 µM,,> 100 µM,> 100 µM,> 100 µM,,,,
CCCC/C=C1\CCC(CN2CCCC2)C1=O (stereo not drawn),,32.1 µM,,97.1 µM,,,,31.1 µM,,,,36.4 µM,,34.2 µM,31.1 µM,24.5 µM,,,,
N=C(N)SCC(=O)O,,> 100 µM,,> 100 µM,,> 100 µM,,> 100 µM,,> 100 µM,,> 100 µM,,> 100 µM,> 100 µM,,,,> 100 µM,
C(/C=C/N1CCCC1)=C\c1nc(N2CCCC2)c2ccccc2n1,,32.9 µM,,36.3 µM,,27.8 µM,,33.3 µM,,,,35.4 µM,,39.6 µM,,33.9 µM,,,,
CCOC(=O)c1cc(C(=O)O)c(=O)n2c1[nH]c1ccccc12,,> 100 µM,,> 100 µM,,> 100 µM,,> 100 µM,,> 100 µM,,> 100 µM,,> 100 µM,,,,,,
COc1cc2c3c(c1OC)/C(=N/OS(=O)(=O)c1ccc(C)cc1)CC3N(S(=O)(=O)c1ccc(C)cc1)CC2 (stereo not drawn),,> 100 µM,,> 100 µM,,> 100 µM,,> 100 µM,,> 100 µM,,> 100 µM,,> 100 µM,> 100 µM,,,,,
c1cc2ccc1C1NCCCN1CCN1CCCNC1c1ccc(cc1)C1NCCCN1CCN1CCCNC21 (stereo not drawn),,> 100 µM,,> 100 µM,,> 100 µM,,> 100 µM,,97.9 µM,,> 100 µM,,> 100 µM,> 100 µM,,,,,
